In patent US9796700B2 (Celgene CAR LLC, priority 2013, dated 2017):

Biological target: Erk1 (Homo sapiens (Human), UniProt P27361)
Experiment: Protein Mass Modification Assay (intact protein MALDI)
Assay type: binding
How it was run: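 Human Erk1 was incubated 60 min at room temperature with a 10-fold molar excess of compound, then analysed as intact protein by MALDI with sinapinic acid matrix. The centroid mass shift versus untreated protein was divided by compound molecular weight to give percent modified protein.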

Sequence of Erk1 (P27361 whole entry, looked up): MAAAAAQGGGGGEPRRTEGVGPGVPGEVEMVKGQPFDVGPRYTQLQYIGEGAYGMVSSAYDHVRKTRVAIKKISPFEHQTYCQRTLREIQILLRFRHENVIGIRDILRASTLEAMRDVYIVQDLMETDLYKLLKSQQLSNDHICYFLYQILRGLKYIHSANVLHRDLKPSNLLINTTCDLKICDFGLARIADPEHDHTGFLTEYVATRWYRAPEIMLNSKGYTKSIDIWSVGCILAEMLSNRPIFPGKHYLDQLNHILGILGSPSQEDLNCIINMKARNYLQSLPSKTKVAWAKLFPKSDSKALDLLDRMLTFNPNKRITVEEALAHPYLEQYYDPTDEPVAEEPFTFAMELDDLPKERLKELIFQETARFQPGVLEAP

Row | SMILES | ERK1 Mass Mod (%)
1 | C=CC(=O)Nc1ccccc1Nc1nc(Nc2ccc(N(CCCN)C(C)=O)cc2OC)ncc1Cl [Compound I-167, N-(2-((2-((4-(N-(3-aminopropyl)acetamido)-2-methoxyphenyl)amino)-5-chloropyrimidin-4-yl)amino)phenyl)acrylamide] | E (provided a mass modification of ≧70%)
2 | C=CC(=O)Nc1ccccc1Nc1nc(Nc2ccc(N(CCN)C(C)=O)cc2OC)ncc1Cl [Compound I-168, N-(2-((2-((4-(N-(2-aminoethyl)acetamido)-2-methoxyphenyl)amino)-5-chloropyrimidin-4-yl)amino)phenyl)acrylamide] | E (provided a mass modification of ≧70%)
3 | C=CC(=O)Nc1ccccc1Nc1nc(Nc2ccc(N(CCCNC(=O)OC(C)(C)C)C(C)=O)cc2C(F)(F)F)ncc1Cl [Compound I-169, tert-butyl (3-(N-(4-((4-((2-acrylamidophenyl)amino)-5-chloropyrimidin-2-yl)amino)-3-(trifluoromethyl)phenyl)acetamido)propyl)carbamate] | E (provided a mass modification of ≧70%)
4 | C=CC(=O)Nc1ccccc1Nc1nc(Nc2ccc(N(CCCNC(=O)OC(C)(C)C)C(C)=O)cc2OC)ncc1Cl [Compound I-173] | E (provided a mass modification of ≧70%)
5 | C=CC(=O)Nc1ccccc1Nc1nc(Nc2ccc(N(CCNC(=O)OC(C)(C)C)C(C)=O)cc2OC)ncc1Cl [Compound I-174, tert-butyl (2-(N-(4-((4-((2-acrylamidophenyl)amino)-5-chloropyrimidin-2-yl)amino)-3-methoxyphenyl)acetamido)ethyl)carbamate] | E (key: E: provided a mass modification of ≧70%; F: provided a mass modification of 31-69%; G: proived a mass modification ≦30%)
6 | C=CC(=O)Nc1ccccc1Nc1nc(Nc2ccc(NC(=O)COC(C)=O)cc2OC)ncc1Cl [Compound I-183, 2-((4-((4-((2-acrylamidophenyl)amino)-5-chloropyrimidin-2-yl)amino)-3-methoxyphenyl)amino)-2-oxoethyl acetate] | E (provided a mass modification of ≧70%)
7 | C=CC(=O)Nc1ccccc1Nc1nc(Nc2ccc(NC(=O)CO)cc2OC)ncc1Cl [Compound I-186, N-(2-((5-chloro-2-((4-(2-hydroxyacetamido)-2-methoxyphenyl)amino)pyrimidin-4-yl)amino)phenyl)acrylamide] | E (provided a mass modification of ≧70%)
8 | C=CC(=O)Nc1ccccc1Nc1nc(Nc2cc(C(=O)NOCCO)ccc2OC)ncc1Cl [Compound I-194, 3-((4-((2-acrylamidophenyl)amino)-5-chloropyrimidin-2-yl)amino)-N-(2-hydroxyethoxy)-4-methoxybenzamide] | E (provided a mass modification of ≧70%)
9 | C=CC(=O)N(C)c1ccccc1Nc1nc(Nc2cc(C(N)=O)ccc2C#N)ncc1Cl [Compound I-196, 3-((5-chloro-4-((2-(N-methylacrylamido)phenyl)amino)pyrimidin-2-yl)amino)-4-cyanobenzamide] | E (provided a mass modification of ≧70%)
10 | C=CC(=O)Nc1ccccc1Nc1nc(Nc2cc(C(=O)NOCCO)ccc2C#N)ncc1Cl [Compound I-202, 3-((4-((2-acrylamidophenyl)amino)-5-chloropyrimidin-2-yl)amino)-4-cyano-N-(2-hydroxyethoxy)benzamide] | F (key: E: provided a mass modification of ≧70%; F: provided a mass modification of 31-69%; G: proived a mass modification ≦30%)
11 | C=CC(=O)Nc1ccccc1Nc1nc(Nc2ccc(F)cc2C)ncc1Cl [Compound I-209, N-(2-((5-chloro-2-((4-fluoro-2-methylphenyl)amino)pyrimidin-4-yl)amino)phenyl)acrylamide] | F (provided a mass modification of 31-69%)
12 | C=CC(=O)Nc1ccccc1Nc1nc(Nc2ccc(F)cc2OC)ncc1Cl [Compound I-210, N-(2-((5-chloro-2-((4-fluoro-2-methoxyphenyl)amino)pyrimidin-4-yl)amino)phenyl)acrylamide] | F (provided a mass modification of 31-69%)
13 | C=CC(=O)Nc1ccccc1Nc1nc(Nc2cc(C(N)=O)ccc2C(F)(F)F)ncc1Cl [Compound I-220, 3-((4-((2-acrylamidophenyl)amino)-5-chloropyrimidin-2-yl)amino)-4-(trifluoromethyl)benzamide] | E (key: E: provided a mass modification of ≧70%; F: provided a mass modification of 31-69%; G: proived a mass modification ≦30%)
14 | C=CC(=O)Nc1ccccc1Nc1nc(Nc2cc(C(N)=O)ccc2C)ncc1C [Compound I-224, 3-(4-(2-acrylamidophenylamino)-5-methylpyrimidin-2-ylamino)-4-methyl benzamide] | E (provided a mass modification of ≧70%)
15 | C=CC(=O)Nc1ccccc1Nc1nc(Nc2cc(C(=O)O)ccc2C)ncc1Cl [Compound I-225, 3-((4-((2-acrylamidophenyl)amino)-5-chloropyrimidin-2-yl)amino)-4-methylbenzoic acid] | F (provided a mass modification of 31-69%)
16 | C#CC(=O)NCCCOc1cc(C)c(Nc2ncc(Cl)c(Nc3ccccc3NC(=O)C=C)n2)cc1C(N)=O [Compound I-227, 5-((4-((2-acrylamidophenyl)amino)-5-chloropyrimidin-2-yl)amino)-4-methyl-2-(3-propiolamidopropoxy)benzamide] | E (provided a mass modification of ≧70%)
17 | C=CC(=O)Nc1cc(C)ccc1Nc1nc(Nc2ccnc(Cl)c2)ncc1Cl [Compound I-230, N-(2-((5-chloro-2-((2-chloropyridin-4-yl)amino)pyrimidin-4-yl)amino)-5-methylphenyl)acrylamide] | E (provided a mass modification of ≧70%)
18 | C=CC(=O)Nc1ccccc1Nc1nc(Nc2cc(C(=O)NC)c(F)cc2C)ncc1Cl [Compound I-231, 5-((4-((2-acrylamidophenyl)amino)-5-chloropyrimidin-2-yl)amino)-2-fluoro-N,4-dimethylbenzamide] | E (provided a mass modification of ≧70%)

Next, values leading:

Row | ERK1 Mass Mod (%) | SMILES
19 | E (provided a mass modification of ≧70%) | C=CC(=O)Nc1cc(OC)ccc1Nc1nc(Nc2ccc3c(c2)CC(=O)N3CC)ncc1Cl [Compound I-166, N-(2-((5-chloro-2-((1-ethyl-2-oxoindolin-5-yl)amino)pyrimidin-4-yl)amino)-5-methoxyphenyl)acrylamide]
20 | E (provided a mass modification of ≧70%) | C=CC(=O)Nc1cc(OC)ccc1Nc1nc(Nc2ccc(N(CC)C(C)=O)cc2OC)ncc1Cl [Compound I-175, N-(2-((5-chloro-2-((4-(N-ethylacetamido)-2-methoxyphenyl)amino)pyrimidin-4-yl)amino)-5-methoxyphenyl)acrylamide]
21 | E (provided a mass modification of ≧70%) | C=CC(=O)Nc1cc(OC)ccc1Nc1nc(Nc2ccc(N(CC)C(C)=O)cc2C(F)(F)F)ncc1Cl [Compound I-176, N-(2-((5-chloro-2-((4-(N-ethylacetamido)-2-(trifluoromethyl)phenyl)amino)pyrimidin-4-yl)amino)-5-methoxyphenyl)acrylamide]
22 | E (provided a mass modification of ≧70%) | C=CC(=O)Nc1ccccc1Nc1nc(Nc2ccc(N3CCC[C@H]3C(N)=O)cc2C#N)ncc1Cl [Compound I-177, (S)-1-(4-((4-((2-acrylamidophenyl)amino)-5-chloropyrimidin-2-yl)amino)-3-cyanophenyl)pyrrolidine-2-carboxamide]
23 | E (provided a mass modification of ≧70%) | C=CC(=O)Nc1cc(OC)ccc1Nc1nc(Nc2ccc(N3CCC[C@H]3C(N)=O)cc2C#N)ncc1Cl [Compound I-178, (S)-1-(4-((4-((2-acrylamido-4-methoxyphenyl)amino)-5-chloropyrimidin-2-yl)amino)-3-cyanophenyl)pyrrolidine-2-carboxamide]
24 | E (provided a mass modification of ≧70%) | C=CC(=O)Nc1ccccc1Nc1nc(Nc2ccc(N3CCC[C@@H]3C(N)=O)cc2C#N)ncc1Cl [Compound I-179, (R)-1-(4-((4-((2-acrylamidophenyl)amino)-5-chloropyrimidin-2-yl)amino)-3-cyanophenyl)pyrrolidine-2-carboxamide]
25 | E (provided a mass modification of ≧70%) | C=CC(=O)Nc1cc(OC)ccc1Nc1nc(Nc2ccc(N3CCC[C@@H]3C(N)=O)cc2C#N)ncc1Cl [Compound I-180, (R)-1-(4-((4-((2-acrylamido-4-methoxyphenyl)amino)-5-chloropyrimidin-2-yl)amino)-3-cyanophenyl)pyrrolidine-2-carboxamide]
26 | E (provided a mass modification of ≧70%) | C=CC(=O)Nc1cc(OC)ccc1Nc1nc(Nc2ccc(N3CCC[C@@H]3CO)cc2C#N)ncc1Cl [Compound I-181, (R)—N-(2-((5-chloro-2-((2-cyano-4-(2-(hydroxymethyl)pyrrolidin-1-yl)phenyl)amino)pyrimidin-4-yl)amino)-5-methoxyphenyl)acrylamide]
27 | E (provided a mass modification of ≧70%) | C=CC(=O)Nc1ccccc1Nc1nc(Nc2ccc(NS(C)(=O)=O)cc2OC)ncc1Cl [Compound I-185, N-(2-((5-chloro-2-((2-methoxy-4-(methylsulfonamido)phenyl)amino)pyrimidin-4-yl)amino)phenyl)acrylamide]
28 | E (provided a mass modification of ≧70%) | C=CC(=O)Nc1ccccc1Nc1nc(Nc2cc(C(=O)NOC)ccc2C#N)ncc1Cl [Compound I-195, 3-((4-((2-acrylamidophenyl)amino)-5-chloropyrimidin-2-yl)amino)-4-cyano-N-methoxybenzamide]
29 | E (provided a mass modification of ≧70%) | C=CC(=O)Nc1cc(F)ccc1Nc1nc(Nc2cc(C(N)=O)ccc2C#N)ncc1Cl [Compound I-207, 3-(4-(2-acrylamido-4-fluorophenylamino)-5-chloropyrimidin-2-ylamino)-4-cyanobenzamide]
30 | E (provided a mass modification of ≧70%) | C=CC(=O)Nc1cc(F)ccc1Nc1nc(Nc2ccc(F)cc2OC)ncc1Cl [Compound I-213, N-(2-((5-chloro-2-((4-fluoro-2-methoxyphenyl)amino)pyrimidin-4-yl)amino)-5-fluorophenyl)acrylamide]
